What was measured:
[1] = system: TLR7 (R837) / TLR3 (poly:IC) induced cytokine production in RAW264.7 cells; assay: ELISA of IL-1β and IL-6 in supernatant of R837 and/or poly:IC stimulated RAW264.7 cells; format: cell-based, mouse
Method: (§1) RAW264.7 cells (5×10^5/ml), BMDMs (5×10^5/ml) and PBMCs (2×10^6/ml) were plated in 96-well plates and incubated overnight. […] For the anti-inflammatory molecular mechanism study, RAW264.7 cells (5×10^5/ml) were plated in 96-well plates and stimulated with R837 (20 μg/ml) with or without the addition of NF-κB inhibitor (JSH-23, […]) for 24 h. After 24 h, the culture supernatant was collected for cytokines measurements.
(§2) IL-4, IL-17A and TNF-α in sera from different group mice were measured using CBA Multiplex kit (BD, United States). The concentrations of IL-1β and IL-6 in serum or supernatant were detected by ELISA Kit (MULTI SCIENCES, China) according to the manufacturers’ instructions.

[2] = system: TLR7-mediated IRAK4/IKKβ/IRF5 signaling pathway; assay: Western blot, IRAK4/IKKβ/IRF5 in R837-stimulated RAW264.7 cells; format: cell-based, mouse; conditions: R837-stimulated RAW264.7
Method: RAW264.7 cells (2×10^6 cells/well) were plated into 6-well plates and then incubated at 37°C in 5% CO2 for 24 h. After incubated with various concentrations of EFL2 (1, 5 and 10 µM) for 1 h, cells were then stimulated by R837 (20 μg/ml) for 30 min. Cell lysates were prepared by direct lysis in 20 µL IP buffer (Beyotime Biotechnology, Shanghai, China). After obtaining the whole cell extracts, the cytosolic and nuclear were seperated using Nuclear and Cytoplasmic Protein Extraction Kit (Beyotime Biotechnology, Shanghai, China). BCA Protein Assay Kit (Beyotime Biotechnology, Nantong, China) was applied to determine the protein concentrations. The bands corresponding to p- IKKα/β, IKKα/β, p-IκBα, IκBα, p-p65, p65, p-IRAK4, IRAK4, p-IKKβ, IKKβ, p-IRF5, IRF5, β-actin and Lamin B were visualized using a Western Blot Detection Chemiluminescence Kit (Merck). Protein extracted from the total lysates/cytoplasm and nucleus was quantified in relation to β-actin and Lamin B bands, respectively.
The antibodies used in the experiments were as follows: rabbit anti-mouse IKKα/β polyclonal antibody (1:1,000, Abways, China), rabbit anti-mouse IκBα polyclonal antibody (1:1,000, Abgent, China), rabbit anti-mouse p65 polyclonal antibody (1:1,000, Abgent, China), rabbit anti-mouse phosphorylated IKKα (Ser176)/β (Ser177) (1:1,000, Abways, China), rabbit anti-mouse phosphorylated IκBα (1:1,000, Abcam, United States), rabbit anti-mouse phosphorylated p65 (1:1,000, Abcam, United States), rabbit anti-mouse IRAK4 polyclonal antibody (1:1,000, Proteintech, United States), rabbit anti-mouse phosphorylated IRAK4 (Thr345/Ser346) (1:1,000, Affinity, United States), rabbit anti-mouse IKKβ polyclonal antibody (1:1,000, Abbkine, United States), rabbit anti-mouse phosphorylated IKKβ (Ser177) (1:1,000, Abways, China), rabbit anti-mouse IRF5 polyclonal antibody (1:1,000, Immunoway, United States), rabbit anti-mouse phosphorylated IRF5 (Ser437) (1:1,000, Affinity, United States), anti-mouse actin monoclonal antibody (1:20,000, Transgen, China) and rabbit anti-mouse LaminB monoclonal antibody (1:5,000, Abways, China).

[3] = system: synovial hyperplasia and articular inflammatory cells infiltration in knee joints; assay: Histological assessment (H&E) of knee joints of STA mice; format: in vivo, C57BL/6 mice
Method: K/BxN serum was collected from K/BxN mice at 8 weeks of age, pooled, aliquoted and stored at -20 °C. K/BxN serum-transfer arthritis (STA) model was induced by intraperitoneal (i.p.) application of 150 μL of serum at day 0. Clinical score for arthritis severity was assessed using a 0–4 point scale for each paw at various time points (0–16 total score) as described previously ([Luo et al., 2011]). 8-week old male C57BL/6 mice were purchased from Dashuo Animal Center (China, Chengdu), maintained at 25°C, and exposed to 12-h light and dark cycles. Mice were fed with standard laboratory chow and water with 1 week of acclimatization. Naive mice were used as the control group. Except the control mice, all mice were i. p. injected with 150 μL of serum, then randomly divided into the following groups and treated with different compounds daily for the consecutive 8 days: 1) STA group; 2) Solvent control group, mice were gavaged with the solvent; 3) Dexamethasone (DEX) group, mice were gavaged with 30 mg/kg DEX; 4) EFL2 group 1, mice were gavaged with 40 mg/kg EFL2; 5) EFL2 group 2, mice were intraperitoneally injected with 15 mg/kg EFL2; 6) EFL2 group 3, […] were intraperitoneally injected with 40 mg/kg EFL2. […] All animal experiments were conducted in accordance with ethical regulation for animal care and use in China.
The left knee joints were removed on day 13 post STA and fixed in 4% formaldehyde overnight at 4°C. The tissues were decalcified in EDTA and sectioned after embedding in paraffin. 5 μm sections were deparaffinized with xylene, re-hydrated with 100, 95 and 80% ethanol and then stained with hematoxylin and eosin (H&E). Histopathological changes in the knee joints were measured using a semiquantitative scoring system (0–4 scale) to assess synovial hyperplasia and articular inflammatory cells infiltration as previously described ([Yamanishi et al., 2002]).

[4] = system: TLR7 (R837) / TLR3 (poly:IC) induced cytokine production in BMDMs; assay: ELISA of IL-1β and IL-6 in supernatant of R837 and/or poly:IC stimulated BMDMs; format: cell-based, C57BL/6 mice
Method: RAW264.7 cells, a mouse macrophage cell line, were cultured in DMEM medium containing 10% fetal bovine serum (FBS), 1% penicillin-streptomycin and maintained at 37 °C in 5% CO2 humidified air. Bone marrow-derived macrophages (BMDMs) generation was performed as following description. In brief, bone marrow cells were harvested from tibias and femurs of C57BL/6 mice and differentiated for 7 days in DMEM medium supplemented with 10% FBS, 1% penicillin-streptomycin and 50 ng/ml M-CSF. For human peripheral blood mononuclear cells (PBMCs) preparation, 5 ml peripheral venous blood was obtained from healthy donors in West China Hospital. PBMCs were isolated with Human Lymphocyte Separation Medium (LTS1077, Tian Jing, China) according to the manufacturer’s instructions. The experimental protocols were performed according to the approved guidelines established by the Institutional Human Research Subject Protection Committee of the Ethics Committee of West China Hospital, Sichuan University, China.
as §1, §2

Structure (SMILES): C=C1C(OC(=O)c2ccccc2)CC2C(C=C(C)C(=O)C3(OC(C)=O)CC(C)C(OC(=O)c4ccccc4)C3C1OC(C)=O)C2(C)C (stereo not shown) [EFL2, Euphorbia factor L2]
- inhibitory ability on IL-1β and IL-6 production compared to JSH-23 ([1]; R837-stimulated RAW264.7, EFL2 10 μM): stronger inhibitory ability
- IL-6 production ([1]; R837-stimulated RAW264.7, EFL2 0.1-10 μM): dose-dependently reduced
- IL-1β secretion ([1]; R837-stimulated RAW264.7, EFL2 at 0.1 μM): effectively inhibit
- levels of IL-1β and IL-6 in the supernatant ([1]; RAW264.7 co-stimulated by poly (I:C) and R837, various concentrations of EFL2): to different expent decreased
- IRF5 translocation (cytoplasm to nucleus) ([2]; EFL2 at 5 and 10 μM, also immunofluorescence): effectively blocked
- phosphorylation of IKKβ ([2]; EFL2 pretreatment 1, 5, 10 μM): significantly suppressed
- phosphorylation of IRAK4 ([2]; EFL2 pretreatment 1, 5, 10 μM): significantly suppressed
- phosphorylation of IRF5 ([2]; EFL2 pretreatment 1, 5, 10 μM): significantly suppressed
- inflammatory cells infiltration and synovium hyperplasia in joints ([3]; EFL2 15 mg/kg i.p.): only partially reduced
- inflammatory status and inflamed synovium in joints ([3]; EFL2 40 mg/kg i.p.): significantly inhibited
- levels of IL-1β and IL-6 in the supernatant ([4]; BMDMs co-stimulated by poly (I:C) and R837, various concentrations of EFL2): to different expent decreased
- IL-6 production ([4]; R837-stimulated BMDMs, EFL2 0.1-10 μM): dose-dependently reduced
- IL-1β secretion ([4]; R837-stimulated BMDMs, EFL2 at 0.1 μM): effectively inhibit

— paper PMC8691750, “Euphorbia Factor L2 ameliorates the Progression of K/BxN Serum-Induced Arthritis by Blocking TLR7 Mediated IRAK4/IKKβ/IRF5 and NF-kB Signaling Pathways” (Frontiers in Pharmacology, 2021)
